The text below walks through data of article PMC7351617 (Journal of neurochemistry, 2020).

Structures are written as SMILES. Read-outs that look alike come from different tables or passages of the source.

Experiment [1] has as its system rat adrenal chromaffin cells (native α3β4* / α3β2β4 nAChRs). Particulars: SD.
Experiment [2] concerns α7 nAChRs of rat adrenal chromaffin cells. In kind it is cell-based.

In the case of `CC(=O)OCC[N+](C)(C)C` [ACh, Acetylcholine (ACh) chloride], the ACh-evoked currents in experiment [1] is recorded as −2730 ± 1789 pA; in experiment [1] (n=7), −3992 ± 1649 pA.
Consider `COc1cc(OC)c(NC(=O)Nc2cc(C)on2)cc1Cl` [PNU120596], for which, in experiment [2], the “cells with detectable PNU282987-evoked currents in the presence of PNU120596” value was 24/28. For the same compound, in experiment [2] (SD), the “PNU282987-evoked current amplitude in the presence of PNU120596” value was −1275 ± 1668 pA and the “increase in PNU282987-evoked current amplitudes in the presence of PNU120596” value is 54 ± 99 fold.
On to `Cl.O=C(N[C@H]1CN2CCC1CC2)c1ccc(Cl)cc1` [PNU282987, N-[(3R)-1-Azabicyclo[2.2.2]oct-3-yl]-4-chlorobenzamide hydrochloride], for which, in experiment [2], the “PNU282987-evoked current amplitudes in some cells (relatively small)” value was 10–20 pA and the “cells in which PNU282987 evoked currents” value is 18/28. The “PNU282987-evoked current amplitude before PNU120596” value in experiment [2] (SD) is given as −29 ± 38 pA.
